Reference: PubChem BioAssay (NCI)
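Method: 48-hour compound exposure of cells in 96-well plates, five concentrations, linear interpolation of endpoints. Here, GI50 denotes the concentration required for 50% inhibition of growth. TGI: total growth inhibition.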

How the values were obtained:
Test in all cases: inhibition of tumour cell growth, NCI panel, 48 h
[1] = test system: OVCAR-3 ovarian
[2] = test system: COLO 205 colon
[3] = test system: A549 NSCLC
[4] = test system: DLD-1 colon
[5] = test system: DMS 273 small cell lung
[6] = test system: M14 melanoma
[7] = test system: LOX IMVI melanoma
[8] = test system: SK-MEL-2 melanoma
[9] = test system: HCC-2998 colon
[10] = test system: ACHN renal
[11] = test system: CAKI-1 renal
[12] = test system: KM20L2 colon
[13] = test system: SNB-75 CNS
[14] = test system: OVCAR-5 ovarian
[15] = test system: SF-295 CNS
[16] = test system: HL-60(TB) leukemia
[17] = test system: 786-0 renal
[18] = test system: HCT-116 colon
[19] = test system: LXFL 529 NSCLC
[20] = test system: KM12 colon
[21] = test system: HOP-62 NSCLC
[22] = test system: SK-MEL-28 melanoma
[23] = test system: SW-620 colon
[24] = test system: OVCAR-4 ovarian
[25] = test system: SF-539 CNS
[26] = test system: MALME-3M melanoma
[27] = test system: NCI-H226 lung
[28] = test system: UO-31 renal
[29] = test system: RXF 393 renal
[30] = test system: NCI-H522 lung
[31] = test system: UACC-257 melanoma
[32] = test system: HT29 colon
[33] = test system: OVCAR-8 ovarian
[34] = test system: DMS 114 small cell lung
[35] = test system: SF-268 CNS
[36] = test system: U251 CNS
[37] = test system: NCI-H460 lung
[38] = test system: TK-10 renal
[39] = test system: SN12C renal
[40] = test system: EKVX NSCLC
[41] = test system: SNB-19 CNS
[42] = test system: SNB-78 CNS
[43] = test system: IGROV1 ovarian
[44] = test system: MOLT-4 leukemia
[45] = test system: SK-OV-3 ovarian
[46] = test system: UACC-62 melanoma
[47] = test system: K-562 leukemia
[48] = test system: SK-MEL-5 melanoma
[49] = test system: HCT-15 colon
[50] = test system: RPMI-8226 leukemia
[51] = test system: A498 renal
[52] = test system: HOP-92 NSCLC
[53] = test system: NCI-H23 lung
[54] = test system: MDA-MB-435
[55] = test system: MDA-MB-231 breast
[56] = test system: DU-145 prostate
[57] = test system: T-47D breast
[58] = test system: CCRF-CEM leukemia
[59] = test system: BT-549 breast
[60] = test system: PC-3 prostate
[61] = test system: NCI/ADR-RES ovarian
[62] = test system: HS 578T breast
[63] = test system: MDA-N
[64] = test system: SR leukemia
[65] = test system: MCF7 breast

`CCCC(C)C[C@@H](C)CC(C)/C=C(\C)c1oc(=O)c(C)c(O)c1C` (some centres not stated) (tested in a mixture with another compound) showed a TGI [1] of 18.9 µM, a TGI [2] of 46 µM and a TGI [3] of 34 µM. It also gave a TGI [4] of 27.8 µM, a TGI [5] of 32.4 µM and a TGI [6] of 29.1 µM. For the same compound, the TGI [7] was 31.6 µM, the TGI [8] was 22.8 µM and the TGI [9] was 25.5 µM. The TGI [10] was 17.9 µM, the TGI [11] was 28.1 µM and the TGI [12] was 25.7 µM. It also gave a TGI [13] of 28.3 µM, a TGI [14] of 17.5 µM and a TGI [15] of 25.9 µM. For the same compound, the TGI [16] was 29.8 µM, the TGI [17] was 29.5 µM and the TGI [18] was 32.3 µM. The TGI [19] was 25.9 µM, the TGI [20] was 41.4 µM and the TGI [21] was 36.5 µM. The TGI [22] was 28.2 µM, the TGI [23] was 35.1 µM and the TGI [24] was 26.6 µM. It also gave a TGI [25] of 30.1 µM, a TGI [26] of 9.17 µM and a TGI [27] of 30.4 µM. The TGI [28] was 27 µM, the TGI [29] was 26.6 µM and the TGI [30] was 31.1 µM. For the same compound, the TGI [31] was 29.2 µM, the TGI [32] was 27.6 µM and the TGI [33] was 39.7 µM. The TGI [34] was 32.2 µM, the TGI [35] was 33.5 µM and the TGI [36] was 27.6 µM. For the same compound, the TGI [37] was 25.1 µM, the TGI [38] was 33.7 µM and the TGI [39] was 29.1 µM. For the same compound, the TGI [40] was 31.9 µM, the TGI [41] was 28 µM and the TGI [42] was 45.9 µM.

`O=C([CH-]C(=O)c1ccccc1)c1ccccc1.O=C([CH-]C(=O)c1ccccc1)c1ccccc1.O=C([CH-]C(=O)c1ccccc1)c1ccccc1.[OH3+].[Y+3]` gave a GI50 [43] of 13.6 µM, a TGI [43] of 62.4 µM and a GI50 [1] of 5 µM. It also gave a TGI [1] of 17.3 µM, a GI50 [2] of 13.2 µM and a TGI [2] of 30.9 µM. The GI50 [3] was 13.2 µM, the TGI [3] was 38.9 µM and the GI50 [6] was 9.36 µM. The TGI [6] was 22 µM, the GI50 [44] was 2.96 µM and the TGI [44] was 20.5 µM. The GI50 [7] was 3.74 µM, the TGI [7] was 17 µM and the GI50 [8] was 4.24 µM. For the same compound, the TGI [8] was 17.9 µM, the GI50 [9] was 10.3 µM and the TGI [9] was 25.8 µM. The GI50 [10] was 6.34 µM, the TGI [10] was 21.9 µM and the GI50 [45] was 11.2 µM. The TGI [45] was 40 µM, the GI50 [11] was 5.68 µM and the TGI [11] was 26.8 µM. The GI50 [46] was 5.73 µM, the TGI [46] was 22.3 µM and the GI50 [47] was 3.6 µM. The TGI [47] was 17.8 µM, the GI50 [12] was 5.92 µM and the GI50 [13] was 3.25 µM. It also gave a TGI [13] of 8.1 µM, a GI50 [14] of 16.9 µM and a TGI [14] of 66.1 µM. It also gave a GI50 [15] of 3.99 µM, a TGI [15] of 19.1 µM and a GI50 [16] of 2.4 µM. The TGI [16] was 11.5 µM, the GI50 [48] was 3.72 µM and the TGI [48] was 13.9 µM. It also gave a GI50 [17] of 4.72 µM, a TGI [17] of 21.8 µM and a GI50 [18] of 4.18 µM. The TGI [18] was 18.3 µM, the GI50 [20] was 5.38 µM and the TGI [20] was 24 µM. It also gave a GI50 [49] of 4.96 µM, a TGI [49] of 22.8 µM and a GI50 [21] of 4.5 µM. For the same compound, the TGI [21] was 22.5 µM, the GI50 [22] was 10.8 µM and the TGI [22] was 40.2 µM. The GI50 [23] was 5.14 µM, the TGI [23] was 22.8 µM and the GI50 [50] was 6.04 µM. The TGI [50] was 32.2 µM, the GI50 [24] was 8.77 µM and the TGI [24] was 46 µM. For the same compound, the GI50 [51] was 16.3 µM, the TGI [51] was 43.1 µM and the GI50 [25] was 9.27 µM. For the same compound, the TGI [25] was 43.1 µM, the GI50 [26] was 14 µM and the TGI [26] was 47.2 µM. It also gave a GI50 [28] of 4.51 µM, a TGI [28] of 14.7 µM and a GI50 [30] of 2.58 µM. For the same compound, the TGI [30] was 11.1 µM, the GI50 [31] was 12 µM and the TGI [31] was 33.2 µM. For the same compound, the GI50 [52] was 10 µM, the TGI [52] was 25.3 µM and the GI50 [32] was 4.09 µM. The TGI [32] was 17.1 µM, the GI50 [33] was 3.5 µM and the TGI [33] was 21.8 µM. It also gave a GI50 [35] of 4.8 µM, a TGI [35] of 31 µM and a GI50 [36] of 2.93 µM. It also gave a TGI [36] of 24.2 µM, a GI50 [37] of 4.29 µM and a TGI [37] of 34.6 µM. For the same compound, the GI50 [38] was 7.78 µM, the TGI [38] was 68.4 µM and the GI50 [53] was 3.51 µM. The TGI [53] was 18.9 µM, the GI50 [39] was 4.68 µM and the TGI [39] was 26.7 µM. For the same compound, the GI50 [40] was 3.32 µM, the TGI [40] was 23.1 µM and the GI50 [41] was 8.04 µM. For the same compound, the TGI [41] was 56.4 µM.

In the case of `C=CCC(C(=O)O)c1ccccc1` (configuration not stated), the TGI [43] is reported as over 100 µM, the TGI [1] is reported as over 100 µM and the TGI [2] is reported as over 100 µM. The TGI [3] was over 100 µM, the TGI [54] was over 100 µM and the TGI [55] was over 100 µM. For the same compound, the TGI [6] was over 100 µM, the TGI [44] was over 100 µM and the TGI [7] was over 100 µM. For the same compound, the TGI [8] was over 100 µM, the TGI [9] was over 100 µM and the TGI [10] was over 100 µM. It also gave a TGI [56] of over 100 µM, a TGI [45] of over 100 µM and a TGI [11] of over 100 µM. For the same compound, the TGI [46] was over 100 µM, the TGI [47] was over 100 µM and the TGI [13] was over 100 µM. For the same compound, the TGI [14] was over 100 µM, the TGI [15] was over 100 µM and the TGI [16] was over 100 µM. For the same compound, the TGI [48] was over 100 µM, the TGI [57] was over 100 µM and the TGI [17] was over 100 µM. It also gave a TGI [58] of over 100 µM, a TGI [18] of over 100 µM and a TGI [20] of over 100 µM. It also gave a TGI [49] of over 100 µM, a TGI [21] of over 100 µM and a TGI [59] of over 100 µM. It also gave a TGI [22] of over 100 µM, a TGI [23] of over 100 µM and a TGI [50] of over 100 µM. For the same compound, the TGI [60] was over 100 µM, the TGI [24] was over 100 µM and the TGI [51] was over 100 µM. It also gave a TGI [25] of over 100 µM, a TGI [26] of over 100 µM and a TGI [27] of over 100 µM. It also gave a TGI [28] of over 100 µM, a TGI [29] of over 100 µM and a TGI [61] of over 100 µM. For the same compound, the TGI [62] was over 100 µM, the TGI [30] was over 100 µM and the TGI [31] was over 100 µM. It also gave a TGI [63] of over 100 µM, a TGI [52] of over 100 µM and a TGI [32] of over 100 µM. The TGI [33] was over 100 µM, the TGI [35] was over 100 µM and the TGI [36] was over 100 µM. The TGI [64] was over 100 µM, the TGI [37] was over 100 µM and the TGI [38] was over 100 µM. For the same compound, the TGI [53] was over 100 µM, the TGI [39] was over 100 µM and the TGI [40] was over 100 µM. The TGI [41] was over 100 µM and the TGI [65] was over 100 µM.
